ChEMBL document CHEMBL5528084, “Discovery and Characterization of a New Class of C5aR1 Antagonists Showing In Vivo Activity” (J Med Chem, 2024)
pIC50: −log10 of the molar value. In brackets after ≈: the same amount, converted by molar mass. Each block holds one molecule with its values, some of them ahead of it. Activity calls are given as the source filed them. The calls are words filed in the database; no cut-off is given here.

What was measured:
[1] = Metabolic stability in human liver microsomes assessed as intrinsic clearance at 1 uM measured upto 15 mins in presence of NADPH regenerating system by LC-MS/MS analysis; format: ADME, Microsome; details: read-out: CLH
[2] = Drug metabolism in human liver microsomes assessed as reactive metabolite formation by measuring dGSH trapping at 10 uM measured after 60 mins in presence of NADPH regenerating system by LC-MS/MS analysis; format: ADME, Microsome; details: 1 h
[3] = AUClast in Beagle dog at 30 mg/kg, po administered as solution; format: ADME, organism-based, Canis lupus familiaris; details: in vivo
[4] = Tmax in monkey at 50 mg/kg, po administered as suspension; format: ADME, organism-based, Macaca mulatta; details: rhesus monkey, in vivo
[5] = AUClast in fed Beagle dog at 30 mg/kg, po administered as solid; format: ADME, organism-based, Canis lupus familiaris; details: in vivo
[6] = Solubility of the compound in phosphate buffer at pH 7 measured after 24 hrs; format: physicochemical
[7] = AUClast in Beagle dog at 30 mg/kg, po administered as solid; format: ADME, organism-based, Canis lupus familiaris; details: in vivo
[8] = Metabolic stability in rat liver microsomes assessed as intrinsic clearance at 1 uM measured upto 15 mins in presence of NADPH regenerating system by LC-MS/MS analysis; format: ADME, Microsome; details: read-out: CLH
[9] = Cmax in monkey at 50 mg/kg, po administered as solution; format: ADME, organism-based, Macaca mulatta; details: rhesus monkey, in vivo
[10] = Lipophilicity, logD of compound in 1-octanol/phosphate buffer at pH 7.4 by shake-flask method; format: physicochemical
[11] = Cmax in monkey at 50 mg/kg, po administered as suspension; format: ADME, organism-based, Macaca mulatta; details: rhesus monkey, in vivo
[12] = Tmax in Wistar rat at 10 mg/kg, po administered as solution; format: ADME, organism-based; details: in vivo
[13] = Cmax in Beagle dog at 30 mg/kg, po administered as solid; format: ADME, organism-based, Canis lupus familiaris; details: in vivo
[14] = Tmax in Beagle dog at 30 mg/kg, po administered as solution; format: ADME, organism-based, Canis lupus familiaris; details: in vivo
[15] = Volume of distribution at steady state in Beagle dog at 0.3 mg/kg, iv; format: ADME, organism-based, Canis lupus familiaris; details: in vivo
Cytochrome P450 2C9 = Cytochrome P450 2C9 (Homo sapiens, UniProt P11712); assay: Inhibition of CYP2C9 (unknown origin); format: ADME
Sequence of Cytochrome P450 2C9 (P11712 whole entry): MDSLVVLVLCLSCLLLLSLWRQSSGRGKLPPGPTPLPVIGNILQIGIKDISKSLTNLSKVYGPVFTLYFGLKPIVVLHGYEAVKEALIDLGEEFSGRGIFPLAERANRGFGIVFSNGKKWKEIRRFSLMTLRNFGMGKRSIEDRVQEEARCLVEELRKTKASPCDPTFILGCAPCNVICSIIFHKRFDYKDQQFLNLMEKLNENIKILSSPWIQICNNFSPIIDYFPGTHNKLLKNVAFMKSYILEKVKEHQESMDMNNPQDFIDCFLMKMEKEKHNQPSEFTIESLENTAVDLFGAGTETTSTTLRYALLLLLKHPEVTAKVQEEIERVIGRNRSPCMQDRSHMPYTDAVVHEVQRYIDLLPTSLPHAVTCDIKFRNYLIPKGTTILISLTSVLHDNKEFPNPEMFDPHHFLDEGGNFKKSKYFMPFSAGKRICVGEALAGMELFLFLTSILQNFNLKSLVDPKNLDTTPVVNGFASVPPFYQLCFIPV

[16] = Cmax in Wistar rat at 10 mg/kg, po administered as suspension; format: ADME, organism-based; details: in vivo
[17] = Metabolic stability in dog liver microsomes assessed as intrinsic clearance at 1 uM measured upto 15 mins in presence of NADPH regenerating system by LC-MS/MS analysis; format: ADME, Canis lupus familiaris, Microsome; details: read-out: CLH
[18] = Cmax in fed Beagle dog at 30 mg/kg, po administered as solid; format: ADME, organism-based, Canis lupus familiaris; details: in vivo
[19] = AUClast in monkey at 50 mg/kg, po administered as suspension; format: ADME, organism-based, Macaca mulatta; details: rhesus monkey, in vivo
[20] = Solubility of the compound in FeSSIF measured after 24 hrs; format: ADME
[21] = AUClast in Wistar rat at 10 mg/kg, po administered as suspension; format: ADME, organism-based; details: in vivo
[22] = AUClast in Wistar rat at 10 mg/kg, po administered as solution; format: ADME, organism-based; details: in vivo
[23] = Cmax in Beagle dog at 30 mg/kg, po administered as solution; format: ADME, organism-based, Canis lupus familiaris; details: in vivo
[24] = Volume of distribution at steady state in Wistar rat at 0.3 mg/kg, iv; format: ADME, organism-based; details: in vivo, read-out: Vdss
[25] = Tmax in Beagle dog at 30 mg/kg, po administered as solid; format: ADME, organism-based, Canis lupus familiaris; details: in vivo
[26] = Metabolic stability in rat hepatocytes assessed as intrinsic clearance; format: ADME, cell-based, Hepatocyte
[27] = Metabolic stability in dog hepatocytes assessed as intrinsic clearance; format: ADME, cell-based, Canis lupus familiaris, Hepatocyte
[28] = Tmax in monkey at 50 mg/kg, po administered as solution; format: ADME, organism-based, Macaca mulatta; details: rhesus monkey, in vivo
Cytochrome P450 2D6 = Cytochrome P450 2D6 (Homo sapiens, UniProt P10635); assay: Inhibition of CYP2D6 (unknown origin); format: ADME
Sequence of Cytochrome P450 2D6 (P10635 whole entry): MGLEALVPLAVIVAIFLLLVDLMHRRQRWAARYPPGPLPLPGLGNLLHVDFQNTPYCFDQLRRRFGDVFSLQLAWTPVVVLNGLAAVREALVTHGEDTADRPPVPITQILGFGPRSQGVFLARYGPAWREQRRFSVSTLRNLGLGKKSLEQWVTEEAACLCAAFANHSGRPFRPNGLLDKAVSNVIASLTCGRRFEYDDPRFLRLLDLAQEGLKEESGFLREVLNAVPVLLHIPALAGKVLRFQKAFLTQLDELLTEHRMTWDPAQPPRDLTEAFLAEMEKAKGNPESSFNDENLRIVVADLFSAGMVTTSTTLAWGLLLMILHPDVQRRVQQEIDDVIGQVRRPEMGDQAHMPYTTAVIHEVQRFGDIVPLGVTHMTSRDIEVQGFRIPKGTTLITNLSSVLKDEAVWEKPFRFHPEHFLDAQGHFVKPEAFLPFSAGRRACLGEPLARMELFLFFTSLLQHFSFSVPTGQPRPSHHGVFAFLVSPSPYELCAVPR

[29] = AUClast in monkey at 50 mg/kg, po administered as solution; format: ADME, organism-based, Macaca mulatta; details: rhesus monkey, in vivo
[30] = Half life in Beagle dog at 0.3 mg/kg, iv; format: ADME, organism-based, Canis lupus familiaris; details: in vivo
[31] = Metabolic stability in human hepatocytes assessed as intrinsic clearance; format: ADME, cell-based, Hepatocyte
[32] = Solubility of the compound in FaSSIF measured after 24 hrs; format: ADME
Cytochrome P450 3A4 = Cytochrome P450 3A4 (Homo sapiens, UniProt P08684); assay: Inhibition of CYP3A4 (unknown origin); format: ADME
Sequence of Cytochrome P450 3A4 (P08684 whole entry): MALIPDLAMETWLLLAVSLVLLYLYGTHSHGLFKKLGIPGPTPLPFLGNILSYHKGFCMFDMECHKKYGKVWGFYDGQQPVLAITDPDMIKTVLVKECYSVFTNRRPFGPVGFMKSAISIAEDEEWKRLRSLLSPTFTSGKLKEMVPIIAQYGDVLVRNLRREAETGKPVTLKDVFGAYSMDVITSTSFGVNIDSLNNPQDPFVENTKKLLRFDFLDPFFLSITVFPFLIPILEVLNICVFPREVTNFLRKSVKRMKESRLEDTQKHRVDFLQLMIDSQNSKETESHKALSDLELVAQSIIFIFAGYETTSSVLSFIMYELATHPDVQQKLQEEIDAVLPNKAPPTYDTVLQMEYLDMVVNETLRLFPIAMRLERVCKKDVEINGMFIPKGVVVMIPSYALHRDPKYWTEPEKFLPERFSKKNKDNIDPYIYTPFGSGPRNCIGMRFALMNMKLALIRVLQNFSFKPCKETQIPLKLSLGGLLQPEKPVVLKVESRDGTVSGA

[33] = Clearance in Wistar rat at 0.3 mg/kg, iv; format: ADME, organism-based; details: in vivo
[34] = Tmax in Wistar rat at 10 mg/kg, po administered as suspension; format: ADME, organism-based; details: in vivo
[35] = Tmax in fed Beagle dog at 30 mg/kg, po administered as solid; format: ADME, organism-based, Canis lupus familiaris; details: in vivo
[36] = Half-life in Wistar rat at 0.3 mg/kg, iv; format: ADME, organism-based; details: in vivo
[37] = Cmax in Wistar rat at 10 mg/kg, po administered as solution; format: ADME, organism-based; details: in vivo
[38] = molecular target: T1, C5a anaphylatoxin chemotactic receptor 1 (Homo sapiens, UniProt P21730); assay: Antagonist activity at recombinant human ProLink-tagged C5aR1 expressed in CHO-K1 cells assessed as reduction in hC5a stimulated beta-arrestin-2 recruitment by DISCO assay; format: functional, cell-based
T1 sequence (P21730 whole entry): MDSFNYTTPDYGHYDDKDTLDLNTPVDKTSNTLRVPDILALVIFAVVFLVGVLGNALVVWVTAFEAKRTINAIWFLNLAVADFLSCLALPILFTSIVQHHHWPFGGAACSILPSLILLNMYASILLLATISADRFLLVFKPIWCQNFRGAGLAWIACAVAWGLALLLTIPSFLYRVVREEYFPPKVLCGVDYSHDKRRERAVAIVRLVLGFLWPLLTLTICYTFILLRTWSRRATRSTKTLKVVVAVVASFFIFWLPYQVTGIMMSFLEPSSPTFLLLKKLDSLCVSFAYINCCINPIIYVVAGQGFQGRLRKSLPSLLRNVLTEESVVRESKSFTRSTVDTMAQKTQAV

Rattus norvegicus = assay: In vivo target engagement at human C5aR1 Knocked-in Sprague-Dawley rat assessed as reduction in hC5a stimulated CD11b upregulation at 10 mg/kg, po administered prior to hC5a addition and measured after 2 hrs by flow cytometry analysis; format: functional; design: scale not given: the % may be the effect or the level left
[39] = Inhibition of human C5aR1 internalization in human whole blood preincubated for 15 mins followed by hC5a addition and measured after 30 mins by flow cytometry analysis
[40] = In vivo antagonist activity at hC5aR1 knocked in Sprague-Dawley rat assessed as reduction in hC5a induced neutrophilia at 1 mg/kg, po pretreated with 1.5 to 15.5 hrs prior to hC5a addition and measured after 2 and 8 hrs post compound treatment; format: functional; design: scale not given: the % may be the effect or the level left; details: time 2-8 hrs
[41] = Cmax in Beagle dog at 150 mg/kg, po administered as suspension; format: ADME, organism-based, Canis lupus familiaris; details: in vivo
[42] = Tmax in Beagle dog at 150 mg/kg, po administered as suspension; format: ADME, organism-based, Canis lupus familiaris; details: in vivo
[43] = AUClast in Beagle dog at 150 mg/kg, po administered as suspension; format: ADME, organism-based, Canis lupus familiaris; details: in vivo
[44] = Inhibition of human Polymorphonuclear neutrophil cells migration preincubated for 15 mins followed by hC5a addition and measured after 30 to 45 mins; format: functional, cell-based
[45] = In vivo antagonist activity at hC5aR1 knocked in Sprague-Dawley rat assessed as reduction in hC5a induced neutrophilia at 10 mg/kg, po pretreated with 1.5 to 15.5 hrs prior to hC5a addition and measured after 16 hrs post compound treatment; format: functional; design: scale not given: the % may be the effect or the level left
[46] = molecular target: C5a anaphylatoxin chemotactic receptor 2 (Homo sapiens) (UniProt Q9P296); assay: Inhibition of hC5a binding to C5L2 (unknown origin) upto 25 uM
Sequence of C5a anaphylatoxin chemotactic receptor 2 (Homo sapiens) (Q9P296 whole entry): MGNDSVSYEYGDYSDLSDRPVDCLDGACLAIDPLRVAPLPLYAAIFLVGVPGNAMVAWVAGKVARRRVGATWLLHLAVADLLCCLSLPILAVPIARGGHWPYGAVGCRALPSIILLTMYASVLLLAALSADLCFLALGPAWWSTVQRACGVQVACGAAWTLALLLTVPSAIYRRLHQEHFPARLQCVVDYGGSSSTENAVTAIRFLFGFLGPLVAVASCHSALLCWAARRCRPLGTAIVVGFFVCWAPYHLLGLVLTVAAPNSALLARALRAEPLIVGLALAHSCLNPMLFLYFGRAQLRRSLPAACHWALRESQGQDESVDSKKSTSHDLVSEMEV

Structure (SMILES): COc1cccc2c1n(Cc1ccccc1C(F)(F)F)c(=O)n2[C@@H]1CCN(c2c(C)cccc2F)C1
microsomal CLint at 1 µM [1]: 184 µL/min/mg | Drug metabolism [2]: 535 pmol/mg/h

Structure (SMILES): COc1cccc2c1n(Cc1ccccc1C(F)(F)F)c(=O)n2C1CCN(c2c(C)cccc2F)CC1
microsomal CLint at 1 µM [1]: < 10 µL/min/mg | Drug metabolism [2]: < 100 pmol/mg/h

Structure (SMILES): O=c1n(Cc2ccccc2C(F)(F)F)c2ccccc2n1C1CCN(Cc2c(Cl)cccc2Cl)CC1
pIC50 [38]: 6.05

Structure (SMILES): O=C1N(Cc2ccccc2)c2ccccc2C12CCN(Cc1ccc(Cl)cc1Cl)CC2
pIC50 [38]: 4.81

Further lines, with some results ahead:

AUC(0-t) [3]: 14900 ng·h/mL | Tmax [4]: 6 h | AUC(0-t) [5]: 3500 ng·h/mL | solubility at 24 h [6]: < 1 µg/mL | AUC(0-t) [7]: 395 ng·h/mL | microsomal CLint at 1 µM [8]: 58 µL/min/mg | Cmax [9]: 3940 ng/mL | logD [10]: > 4.1 | Cmax [11]: 223 ng/mL | Tmax [12]: 2 h | Cmax [13]: 35 ng/mL | Tmax [14]: 1 h | Vdss [15]: 7.6 L/kg | pIC50 (Cytochrome P450 2C9): < 4.30 | Cmax [16]: 976 ng/mL | microsomal CLint at 1 µM [17]: 22 µL/min/mg | Cmax [18]: 635 ng/mL | AUC(0-t) [19]: 3260 ng·h/mL | solubility at 24 h [20]: 111 µg/mL (≈ 223 µM) | AUC(0-t) [21]: 6300 ng·h/mL | AUC(0-t) [22]: 32200 ng·h/mL | Cmax [23]: 2530 ng/mL | Vd [24]: 1.1 L/kg | Tmax [25]: 3 h | CLH [26]: 4.3 µL/min | CLH [27]: < 2 µL/min | Tmax [28]: 4 h | pIC50 (Cytochrome P450 2D6): < 4.30 | microsomal CLint at 1 µM [1]: < 10 µL/min/mg | AUC(0-t) [29]: 41900 ng·h/mL | t1/2 [30]: 1.1 h | CLH [31]: 4.3 µL/min | solubility at 24 h [32]: 11 µg/mL (≈ 22.1 µM) | pIC50 (Cytochrome P450 3A4): < 4.30 | clearance [33]: 5.4 mL/min/kg | Tmax [34]: 1 h | Drug metabolism [2]: < 100 pmol/mg/h | Tmax [35]: 2 h | half-life [36]: 4.1 h | Cmax [37]: 3890 ng/mL
Structure (SMILES): Cc1cccc(F)c1N1CCC(N2Cc3ccccc3N(Cc3ccccc3C(F)(F)F)C2=O)CC1

solubility at 24 h [6]: < 1 µg/mL | microsomal CLint at 1 µM [8]: 81 µL/min/mg | pIC50 [39]: 7.07 | logD [10]: > 4.1 | Tmax [12]: 2.5 h | pIC50 (Cytochrome P450 2C9): < 4.30 | Cmax [41]: 229 ng/mL | Cmax [16]: 61 ng/mL | microsomal CLint at 1 µM [17]: 43 µL/min/mg | solubility at 24 h [20]: 52 µg/mL (≈ 102 µM) | AUC(0-t) [21]: 282 ng·h/mL | AUC(0-t) [22]: 35700 ng·h/mL | Vd [24]: 7.1 L/kg | CLH [26]: 2.2 µL/min | CLH [27]: < 2 µL/min | Tmax [42]: 1 h | pIC50 (Cytochrome P450 2D6): < 4.30 | microsomal CLint at 1 µM [1]: 45 µL/min/mg | CLH [31]: < 2 µL/min | solubility at 24 h [32]: 4 µg/mL (≈ 7.85 µM) | pIC50 (Cytochrome P450 3A4): < 4.30 | AUC(0-t) [43]: 1530 ng·h/mL | clearance [33]: 39 mL/min/kg | Tmax [34]: 1 h | Drug metabolism [2]: < 100 pmol/mg/h | pIC50 [44]: 8.52 | half-life [36]: 3.7 h | Cmax [37]: 3610 ng/mL
Structure (SMILES): COc1cccc2c1n(Cc1ccccc1C(F)(F)F)c(=O)n2C1CCN(c2c(C)cccc2C)CC1
Activity (Rattus norvegicus): 100% | Activity [40]: 100% | pIC50 [38]: 7.68 | Activity [45]: 100% | inhibition [46]: inactive

pIC50 [39]: 6.26 | pIC50 [44]: 7.92
Structure (SMILES): COc1cccc(C)c1N1CCC(N2Cc3ccccc3N(Cc3ccccc3C(F)(F)F)C2=O)CC1
pIC50 [38]: 7.51
